This is an account of results in US20130209522A1, “Drug Release from a Polymer-Controlled Local Antibiotic Delivery System Using a Degradable Bone Graft” (UNIVERSITY OF UTAH RESEARCH FOUNDATION, priority 2012, published 2013).

Where a name gives a salt, the structure may show the parent alone. Read-outs that look alike come from different tables or passages of the source.

Data set [1] deals with Staphylococcus aureus (ATCC 25923). As to the kind of experiment: Zone of inhibition of antibiotic release samples. The data set is classed as cell-based. As to conditions: released from PCL-coated allograft bone. As for the experimental part: Zone of Inhibition. Immediately following the kinetics assay, filter paper disks (diameter=6 mm) were placed in the antibiotic release samples in the 96-well plate and dried overnight. Staphylococcus aureus (ATCC 25923 from American Type Culture Collection, Manassas, Va., USA) streaked Brain-Heart Infusion (BHI, BD cat#237500) agar plates were prepared for zone of inhibition experiments using pooled isolated colonies from blood agar plates diluted to a standard concentration (0.5 McFarland units). Subsequently, each drug-containing disk was placed on the bacterial-streaked agar […]. Plates were incubated for 18 hours at 37° C. Electronic calipers were used to measure the cleared (no bacterial growth) diameter surrounding each disk (zone of inhibition). If no measurable zone was present the diameter was recorded as zero.

For data set [2] the following is noted: cited from earlier work; for Solubility in organic solvents / Water solubility / pH induced in the surrounding: Table 3, for reference; for Solubility in organic solvents: cell wraps over several lines, first line given; for Solubility: ranking of solvents, Table 2.
A short description of data set [3]: Tobramycin thermostability during PCL formulation (bioactivity). It counts as physicochemical. As to conditions: after inclusion in a PCL formulation; data not shown.

As to `O=C(O)c1cn(C2CC2)c2cc(N3CCNCC3)c(F)cc2c1=O` [Ciprofloxacin], the “zones of inhibition compared to the antibiotic salts (vancomycin and oxacillin)” value in data set [1] is reported as “enhanced zones of inhibition”.
For `Cc1onc(-c2ccccc2)c1C(=O)N[C@@H]1C(=O)N2[C@@H]1SC(C)(C)[C@@H]2C(=O)O` [Oxacillin], in data set [2], the “Solubility in organic solvents” value is reported as “High: MeOH,”, the Water solubility entry is reported as “(13.9 mg/ml” and the “pH induced in the surrounding” value was “High”.
On to `CO[C@H]1/C=C/O[C@@]2(C)Oc3c(C)c(O)c4c(O)c(c(/C=N/N5CCN(C)CC5)c(O)c4c3C2=O)NC(=O)/C(C)=C\C=C\[C@H](C)[C@H](O)[C@@H](C)[C@@H](O)[C@@H](C)[C@H](OC(C)=O)[C@@H]1C` [Rifampin], for which the “zones of inhibition compared to the antibiotic salts (vancomycin and oxacillin)” value in data set [1] is on record as “enhanced zones of inhibition”. The “Solubility in organic solvents” value in data set [2] is listed as “DMSO, CHCl3,”.
Consider `CN[C@H](CC(C)C)C(=O)N[C@H]1C(=O)N[C@@H](CC(N)=O)C(=O)N[C@H]2C(=O)N[C@H]3C(=O)N[C@H](C(=O)N[C@H](C(=O)O)c4cc(O)cc(O)c4-c4cc3ccc4O)[C@H](O)c3ccc(c(Cl)c3)Oc3cc2cc(c3O[C@@H]2O[C@H](CO)[C@@H](O)[C@H](O)[C@H]2O[C@H]2C[C@](C)(N)[C@H](O)[C@H](C)O2)Oc2ccc(cc2Cl)[C@H]1O` [Vancomycin], for which, in data set [2], the “Solubility in organic solvents” value is recorded as “DMSO”.
As for `CN[C@H](CC(C)C)C(=O)N[C@H]1C(=O)N[C@@H](CC(N)=O)C(=O)N[C@H]2C(=O)N[C@H]3C(=O)N[C@H](C(=O)N[C@H](C(=O)O)c4cc(O)cc(O)c4-c4cc3ccc4O)[C@H](O)c3ccc(c(Cl)c3)Oc3cc2cc(c3O[C@@H]2O[C@H](CO)[C@@H](O)[C@H](O)[C@H]2O[C@H]2C[C@](C)(N)[C@H](O)[C@H](C)O2)Oc2ccc(cc2Cl)[C@H]1O` [Vancomycin HCL], the Solubility entry in data set [2] is “water >>> chloroform & ethanol”.
Regarding Tobramycin Sulfate, the Solubility result in data set [2] is recorded as “water >>> acetone >> ethanol”.
For the compound `NC[C@H]1O[C@H](O[C@H]2[C@H](O)[C@@H](O[C@H]3O[C@H](CO)[C@@H](O)[C@H](N)[C@H]3O)[C@H](N)C[C@@H]2N)[C@H](N)C[C@@H]1O` [Tobramycin], in data set [2], the “Solubility in organic solvents” value is “EtOH”, the Water solubility result is given as “(538 mg/ml” and the “pH induced in the surrounding” value was “Low”. In data set [2] (in words), the solubility in alcohols result is reported as “marginally soluble” and the solubility in water result is recorded as “very water-soluble”. Further, the solubility in water entry in data set [2] (in words, listed as tobramycin) is “highly soluble”. The thermostability during formulation entry in data set [3] was “no loss in bioactivity”.
